Laboratory results taken from publication PMC5233616, “Structural and functional analyses of human DDX41 DEAD domain” (Protein & Cell, 2016).

Assays:
hDDX41 DEAD domain [1] = molecular target: T1, hDDX41 DEAD domain (Homo sapiens, UniProt Q9UJV9); experiment: isothermal titration calorimetry; details: read-out: binding affinity
T1 construct: gene DDX41; isolated DEAD domain (domain 1; motifs Q to III); monomer; full length is 1-622

hDDX41 DEAD domain [2] = molecular target: T1, hDDX41 DEAD domain; experiment: thermal shift assay; assay type: binding; details: unliganded Tm 41 °C

T1 sequence (Q9UJV9 155-407 limits assumed): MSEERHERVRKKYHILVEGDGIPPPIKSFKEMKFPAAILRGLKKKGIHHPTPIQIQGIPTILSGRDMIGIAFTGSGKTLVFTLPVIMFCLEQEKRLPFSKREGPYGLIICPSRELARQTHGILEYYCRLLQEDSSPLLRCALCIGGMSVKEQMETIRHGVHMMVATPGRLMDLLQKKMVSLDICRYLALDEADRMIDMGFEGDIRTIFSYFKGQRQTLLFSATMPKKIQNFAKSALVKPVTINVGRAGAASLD

Structure (SMILES) | Kd (hDDX41 DEAD domain [1]) | Tm increase (hDDX41 DEAD domain [2])
Nc1ncnc2c1ncn2[C@@H]1O[C@H](COP(=O)(O)OP(=O)(O)O)[C@@H](O)[C@H]1O [ADP] | 31 µM | 2.2 °C
Nc1ncnc2c1ncn2[C@@H]1O[C@H](COP(=O)(O)O)[C@@H](O)[C@H]1O [AMP] | 61 µM | 3.9 °C
